Here are results for two compounds from patent US8066985B2, “Reovirus for the treatment of cellular proliferative disorders” (Oncolytics Biotech Inc., priority 1999, dated 2011).

One experiment concerns NIH 3T3 cells. Description: 2-aminopurine effect on viral protein synthesis. The format is cell-based, mouse. Conditions: 5 mM, concurrently with reovirus; label 12 to 48 h postinfection. Here is the method: To test this idea, 2-aminopurine was used. […] Accordingly, NIH 3T3 cells were exposed to 5 mM 2-aminopurine concurrently with exposure to reovirus. The cells were labeled with [^35S]methionine from 12 to 48 h postinfection, and lysates were harvested and analyzed by SDS-PAGE.

The next experiment relates to H-Ras-transformed cells. As to the kind of experiment: PD98059 effect on reovirus protein synthesis. The format is cell-based. Conditions: 50 μM, MOI approximately 10 p.f.u./cell, label 12 to 48 hours. Here is the method:
(§1) H-Ras-transformed cells were grown to 80% confluency and infected with reovirus at an MOI of approximately 10 p.f.u./cell. PD98059 (Calbiochem), dissolved in dimethylsulfoxide (DMSO), was applied to the cells at the same time as the virus (final concentration of PD98059 was 50 μM). The control cells received an equivalent volume of DMSO. The cells were labeled with ^35S-methionine from 12 to 48 hours post-infection. Lysates were then prepared, immunoprecipitated with the polyclonal anti-reovirus serotype 3 serum and analyzed by SDS-PAGE.

Another experiment relates to PKR. Description: PD98059 effect on PKR phosphorylation. The format is cell-based.
For the next experiment, the system named is ERK1/2 phosphorylation. As to the kind of experiment: PD98059 effect on ERK1/2 phosphorylation. The class given is cell-based. Particulars: 50 μM.
Text: The PhosphoPlus p44/42 MAP kinase (Thr202/Tyr204) Antibody kit (New England Biolabs) was used for the detection of MAP kinase in cell lysates according to the manufacturer's instructions. Briefly, subconfluent monolayer cultures were lysed with the recommended SDS-containing sample buffer, and subjected to SDS-PAGE, followed by electroblotting onto nitrocellulose paper. The membrane was then probed with the primary antibody (anti-total MAPK or anti-phospho-MAPK), followed by the horseradish peroxidase (HRP)-conjugated secondary antibody as described in the manufacturer's instruction manual.
as §1
As expected, PD98059 had no effect on reovirus-induced PKR phosphorylation in untransformed NIH-3T3 cells (data not shown).

“Also recorded” adds a separate entry of the source.

On to `Nc1ncc2[nH]cnc2n1` [2-aminopurine], for which, in the experiment on NIH 3T3 cells, the “level of viral protein synthesis” value is “significantly higher level of viral protein synthesis; also recorded: drastic enhancement of reovirus protein synthesis”.
As to `COc1cccc(-c2cc(=O)c3ccccc3o2)c1N` [PD98059], in the experiment on H-Ras-transformed cells, the “effect on viral protein synthesis” value was “slight enhancement of viral protein synthesis” and the “inhibition of reovirus protein synthesis” value was “did not inhibit reovirus protein synthesis”. Further, the PKR phosphorylation state result with PKR (infected H-Ras-transformed cells, 50 μM) is reported as “remained unphosphorylated”. Besides, in the experiment with PKR (untransformed NIH-3T3 cells), the “effect on reovirus-induced PKR phosphorylation” value is “no effect”. Also, the ERK1/2 phosphorylation entry in the experiment on ERK1/2 phosphorylation is “effectively inhibited ERK1/2 phosphorylation”.
